Data set [1] can be described thus: in vivo. To be noted: beagle, dog, iv, 2.4 mg/kg.
Data set [2] is described as follows: in vivo. As to conditions: beagle, dog, iv, 2.4 mg/kg. This is another data set of the same source.
A short description of data set [3]: in vivo. As to conditions: beagle, dog, iv, 0.6 mg/kg.
The nature of data set [4]: in vivo. To be noted: beagle, dog, iv, 0.6 mg/kg. The source holds these as a separate data set.
Data set [5] can be described thus: in vivo. As to conditions: beagle, dog, iv, 1.2 mg/kg.
Data set [6] in a line: in vivo. As to conditions: beagle, dog, iv, 0.6 mg/kg. The source holds these as a separate data set.
Data set [7] is described as follows: in vivo. To be noted: beagle, dog, iv, 0.6 mg/kg. The source holds these as a separate data set.
Data set [8] in a line: in vivo. To be noted: beagle, dog, iv, 1.2 mg/kg. This is another data set of the same source.
Data set [9] is described as follows: in vivo. As to conditions: beagle, dog, iv, 2.4 mg/kg. This is another data set of the same source.
A short description of data set [10]: in vivo. To be noted: beagle, dog, iv, 1.2 mg/kg. The source holds these as a separate data set.
Data set [11] can be described thus: in vivo. To be noted: beagle, dog, iv, 2.4 mg/kg. The source holds these as a separate data set.
A short description of data set [12]: in vivo. As to conditions: beagle, dog, iv, 1.2 mg/kg. The source holds these as a separate data set.

In the case of `CC(=O)O[C@H]1C(=O)[C@]23C[C@H]2C[C@H]2OC[C@@]2(OC(C)=O)[C@H]3[C@H](OC(=O)c2ccccc2)[C@]2(O)C[C@H](OC(=O)[C@H](O)[C@H](CC(C)C)NC(=O)OC(C)(C)C)C(C)=C1C2(C)C`, the Vd – broadly, a proportionality between amount in the body and measured concentration, not a real space – in the data set “in vivo [1]” turned out to be 30.8 L/kg; in the data set “in vivo [6]”, 45.6 L/kg; in “in vivo [8]”, 34.8 L/kg. Moreover, the values for the Cmax in the data set “in vivo [2]”, in the data set “in vivo [3]” and in “in vivo [10]” were 974 ng/mL, 67.1 ng/mL and 388 ng/mL, respectively. In addition, the results for the half-life in the data set “in vivo [4]”, in the data set “in vivo [5]” and in “in vivo [11]” were 6.06 h, 11.2 h and 8.35 h, respectively. The results for the Tmax in “in vivo [7]”, in the data set “in vivo [9]” and in the data set “in vivo [12]” were 0.89 h, 0.97 h and 0.81 h, respectively.

The values are drawn from ChEMBL document CHEMBL4270572, “Synthesis and biological evaluation of novel larotaxel analogues” (Eur J Med Chem, 2018).
